Values quoted from earlier work, collected in publication PMC9516332 (Frontiers in Oncology, 2022).
Where two headings read alike, the source gives them in different places.

What was measured:
[1] = molecular target: panel of 255 wild-type kinases (Homo sapiens, UniProt Q9NYA1); settings: kinase SPHK1, 1 µmol/L single concentration, cited from earlier work
[2] = molecular target: panel of 255 wild-type kinases (Homo sapiens, UniProt P16234); settings: kinase PDGFRα, 1 µmol/L single concentration, cited from earlier work
[3] = molecular target: T1, panel of 255 wild-type kinases (Homo sapiens, UniProt P42681); settings: kinase TXK, 1 µmol/L single concentration, cited from earlier work
T1 sequence (P42681 1-527): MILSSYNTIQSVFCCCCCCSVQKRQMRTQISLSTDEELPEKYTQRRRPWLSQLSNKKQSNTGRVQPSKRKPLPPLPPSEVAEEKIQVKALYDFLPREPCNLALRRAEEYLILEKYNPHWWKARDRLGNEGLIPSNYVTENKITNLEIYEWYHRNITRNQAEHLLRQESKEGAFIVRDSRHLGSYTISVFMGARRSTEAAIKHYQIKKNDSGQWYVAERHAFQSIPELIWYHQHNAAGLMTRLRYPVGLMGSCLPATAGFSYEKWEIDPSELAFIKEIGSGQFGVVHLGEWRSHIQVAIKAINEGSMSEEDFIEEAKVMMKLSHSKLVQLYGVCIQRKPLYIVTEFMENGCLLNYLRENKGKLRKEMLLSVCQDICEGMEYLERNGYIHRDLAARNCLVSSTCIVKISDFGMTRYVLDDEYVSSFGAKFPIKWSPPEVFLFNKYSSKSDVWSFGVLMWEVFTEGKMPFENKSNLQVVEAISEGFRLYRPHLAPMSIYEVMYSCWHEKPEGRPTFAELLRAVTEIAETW

[4] = molecular target: panel of 255 wild-type kinases (Homo sapiens, UniProt P51617); settings: kinase IRAK1, 1 µmol/L single concentration, cited from earlier work
[5] = molecular target: panel of 255 wild-type kinases (Homo sapiens, UniProt Q9BUB5); settings: MNK1, 1 µmol/L single concentration, cited from earlier work
[6] = molecular target: panel of 255 wild-type kinases (Homo sapiens, UniProt Q9H4A3); settings: kinase WNK1, 1 µmol/L single concentration, cited from earlier work
[7] = molecular target: panel of 255 wild-type kinases (Homo sapiens, UniProt Q15119); settings: kinase PDHK2, 1 µmol/L single concentration, cited from earlier work
[8] = molecular target: T2, panel of 255 wild-type kinases (Homo sapiens, UniProt P15735); settings: kinase PHKG2, 1 µmol/L single concentration, cited from earlier work
T2 sequence (P15735 1-406): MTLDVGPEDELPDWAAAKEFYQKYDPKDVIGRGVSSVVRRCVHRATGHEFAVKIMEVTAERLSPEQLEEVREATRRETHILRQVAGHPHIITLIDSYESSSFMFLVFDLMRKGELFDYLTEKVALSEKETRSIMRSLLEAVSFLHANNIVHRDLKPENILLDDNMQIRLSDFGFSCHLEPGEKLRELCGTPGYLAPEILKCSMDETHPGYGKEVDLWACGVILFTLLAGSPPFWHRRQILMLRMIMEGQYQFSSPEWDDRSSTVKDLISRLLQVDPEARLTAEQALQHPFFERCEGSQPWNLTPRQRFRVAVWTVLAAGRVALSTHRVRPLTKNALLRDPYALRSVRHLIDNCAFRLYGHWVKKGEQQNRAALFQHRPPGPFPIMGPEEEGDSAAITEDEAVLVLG

[9] = molecular target: panel of 255 wild-type kinases (Homo sapiens, UniProt Q9H2X6); settings: kinase HIPK2, 1 µmol/L single concentration, cited from earlier work
[10] = molecular target: T3, panel of 255 wild-type kinases (Homo sapiens, UniProt Q8NE63); settings: kinase HIPK4, 1 µmol/L single concentration, cited from earlier work
T3 sequence (Q8NE63 1-616): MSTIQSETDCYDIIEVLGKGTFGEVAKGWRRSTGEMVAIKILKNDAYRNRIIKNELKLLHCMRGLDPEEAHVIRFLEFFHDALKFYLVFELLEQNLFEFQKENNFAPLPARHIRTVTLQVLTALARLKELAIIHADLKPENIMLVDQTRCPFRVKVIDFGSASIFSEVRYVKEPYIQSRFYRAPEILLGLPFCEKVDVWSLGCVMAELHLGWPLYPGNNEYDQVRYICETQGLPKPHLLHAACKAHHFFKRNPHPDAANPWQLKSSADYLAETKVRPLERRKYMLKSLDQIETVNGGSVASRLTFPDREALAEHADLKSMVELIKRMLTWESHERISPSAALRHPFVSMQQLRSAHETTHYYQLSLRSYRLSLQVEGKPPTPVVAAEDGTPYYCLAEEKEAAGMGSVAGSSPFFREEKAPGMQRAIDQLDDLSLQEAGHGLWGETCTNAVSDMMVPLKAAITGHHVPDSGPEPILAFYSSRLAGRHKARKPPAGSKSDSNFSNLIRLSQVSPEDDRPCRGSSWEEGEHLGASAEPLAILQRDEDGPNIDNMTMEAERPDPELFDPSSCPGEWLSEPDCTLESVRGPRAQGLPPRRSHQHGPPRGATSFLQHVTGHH

[11] = molecular target: panel of 255 wild-type kinases (Homo sapiens, UniProt P45983); settings: cited from earlier work
[12] = ref DOI: 10.1158/1535-7163.MCT-18-0877
[13] = kinase JNK1, 1 µmol/L single concentration, ref DOI: 10.1158/1535-7163.MCT-18-0877
[14] = ref DOI: 10.1371/journal.pone.0092146
[15] = kinase JNK1, 1 µmol/L single concentration, ref DOI: 10.1371/journal.pone.0092146

| Structure (SMILES) | %-inhibition at 1 µmol/L, SPHK1 [1, 12] [%] | %-inhibition at 1 µmol/L, PDGFRα [2, 12] [%] | %-inhibition at 1 µmol/L, TXK [3, 12] [%] | %-inhibition at 1 µmol/L, IRAK1 [4, 12] [%] | %-inhibition, MNK1 [5, 12] [%] | %-inhibition at 1 µmol/L, WNK1 [6, 12] [%] | %-inhibition at 1 µmol/L, PDHK2 [7, 12] [%] | %-inhibition at 1 µmol/L, PHKG2 [8, 12] [%] | %-inhibition at 1 µmol/L, HIPK2 [9, 12] [%] | %-inhibition at 1 µmol/L, HIPK4 [10, 12] [%] | %-inhibition at 1 µmol/L, JNK1 [11, 13] [%] | %-inhibition at 1 µmol/L, SPHK1 [1, 14] [%] | %-inhibition at 1 µmol/L, PDGFRα [2, 14] [%] | %-inhibition at 1 µmol/L, TXK [3, 14] [%] | %-inhibition at 1 µmol/L, IRAK1 [4, 14] [%] | %-inhibition, MNK1 [5, 14] [%] | %-inhibition at 1 µmol/L, WNK1 [6, 14] [%] | %-inhibition at 1 µmol/L, PDHK2 [7, 14] [%] | %-inhibition at 1 µmol/L, PHKG2 [8, 14] [%] | %-inhibition at 1 µmol/L, HIPK2 [9, 14] [%] | also measured |
| --- | --- | --- | --- | --- | --- | --- | --- | --- | --- | --- | --- | --- | --- | --- | --- | --- | --- | --- | --- | --- | --- |
| C=CC(=O)N1CCC[C@@H](n2nc(-c3ccc(Oc4ccccc4)cc3)c3c(N)ncnc32)C1 [ibrutinib] | -3.38 | 94 | 98 | -11 | 15 | 2.3 | -1.08 | 0.816 | 2 | 2.6 | -2.33 |  |  |  |  |  |  |  |  |  |  |
| CC(=O)Nc1cccc(-n2c(=O)n(C3CC3)c(=O)c3c(Nc4ccc(I)cc4F)n(C)c(=O)c(C)c32)c1 [trametinib] |  |  |  |  |  |  |  |  |  |  |  | -11 | 4.53 | -4.66 | 6 | -3 | -1.42 | -0.542 | 2.81 | 0.155 | %-inhibition at 1 µmol/L, HIPK4 [10, 14]: 2.78%; %-inhibition at 1 µmol/L, JNK1 [11, 15]: -4.68% |
| Cc1cc(Nc2ncc(Cl)c(Nc3ccccc3S(=O)(=O)C(C)C)n2)c(OC(C)C)cc1C1CCNCC1 [ceritinib] | -13 | 61 | 1.15 | 9 | -1.9 | 4.45 | -1.41 | 83 | 37 | 36 | 9 |  |  |  |  |  |  |  |  |  |  |
| C[C@@H](Oc1cc(-c2cnn(C3CCNCC3)c2)cnc1N)c1c(Cl)ccc(F)c1Cl [crizotinib] |  |  |  |  |  |  |  |  |  |  |  | -14 | 49 | 39 | 92 | 0 | -3 | -3.51 | 10 | -6.53 | %-inhibition at 1 µmol/L, HIPK4 [10, 14]: 31%; %-inhibition at 1 µmol/L, JNK1 [11, 15]: 0.431% |
| C=CC(=O)Nc1cc(Nc2nccc(-c3cn(C)c4ccccc34)n2)c(OC)cc1N(C)CCN(C)C [osimertinib] | 9 | 69 | 82 | 7 | 99 | -1.88 | -2 | 11 | 40 | 92 | -2.12 |  |  |  |  |  |  |  |  |  |  |
| CCCS(=O)(=O)Nc1ccc(F)c(C(=O)c2c[nH]c3ncc(-c4ccc(Cl)cc4)cc23)c1F [vemurafenib] |  |  |  |  |  |  |  |  |  |  |  | -11 | 87 | 5 | 10 | 23 | 10 | 3.73 | -4.37 | -5 | %-inhibition at 1 µmol/L, HIPK4 [10, 14]: -0.437%; %-inhibition at 1 µmol/L, JNK1 [11]: 1.47% |
| O=C(c1ccc(F)c(F)c1Nc1ccc(I)cc1F)N1CC(O)([C@@H]2CCCCN2)C1 [cobimetinib] | -5.63 | 11 | 0.165 | 0.65 | 14 | -0.124 | -0.379 | 2.22 | 1.68 | 1.8 | -3 |  |  |  |  |  |  |  |  |  |  |
